Data set [1] has as its system CC787-1B yeast strain. The data set is described as follows: Growth kinetics of yeast cells in the presence of increasing phloroglucinol concentrations. The method, then: (§1) In order to know the threshold of phloroglucinol tolerance of bacteria or of yeasts, growth kinetics were prepared in the presence of various concentrations of phloroglucinol. These preliminary experiments aimed to evaluate their EC50.
(§2) The experiment was carried out in the following way. The phloroglucinol was dissolved at the concentration of 15 g·l^−1 in complete medium (Yeast Extract 1%+BactoPeptone 2%) containing 2% glucose as carbon source (YPD medium). The culture media containing lower phloroglucinol concentrations were obtained by diluting this first medium in the same YPD medium containing 2% glucose.
(§3) In order to carry out the experiment, the wild-type yeast or bacterial cells were inoculated at an OD600 nm of 0.05 into the various media, thus containing, as soon as the cultures were started, either 0 (positive control for growth indicated C+), 1, 2.5, 5, 7.5, 10 or 15 g·l^−1 of phloroglucinol. The cultures were carried out in 48-well microplates, at 28° C. for the yeasts, at 37° C. for the bacterial strain, with vigorous shaking for 24 h. Two yeast strains (Saccharomyces cerevisiae) and one bacterial strain (Escherichia coli) were tested.

Data set [2] concerns bacterial strain of Escherichia coli (ECAO50, derived from Escherichia coli K12). The data set is described as follows: microbe, parasite or virus in culture. The conditions noted are these: 24 h. How it is done:
as §1, §2, §3

For data set [3], the system named is yeast cells. Description: Phloroglucinol toxicity in yeast with ethanol added after 20 h of culture. The conditions noted are these: 20 g/l of phloroglucinol, 50 g·l^−1 ethanol added at 20 h, read at 48 h.
Description: The toxicity of phloroglucinol in the presence of ethanol added after 20 h of culture was tested.
The experiments were carried out in an Erlenmeyer flask with vigorous stirring in complete medium containing 2% glucose as carbon source. The yeast cells were inoculated at an OD600 nm of 0.05 from precultures in complete medium. The cultures are completed with increasing concentrations of phloroglucinol (0, 1, 5, 10, 15, 20 g/l) and incubated for 48 h. Two series of Erlenmeyer flasks were prepared. In the second series, 50 g·l^−1 of ethanol are added at 20 h. The growth is monitored by taking samples at 18 h, 20 h, 22 h, 24 h, 42 h and 48 h, and measuring the OD600 nm.
Data set [4] concerns the target T1, SNQ2 (Saccharomyces cerevisiae, UniProt P32568).
T1 construct: expressed in transfected cells; host or cells: Saccharomyces cerevisiae, gene integrated at the JLP1 locus under the pCCW12 promoter (clones YA2786-1 and YA2786-2)
Description: Phloroglucinol tolerance of yeast strains overexpressing PDRs (OD600 nm at 24 h). As to conditions: inferred from SNQ2 overexpression lifting toxicity at 20 g·l^−1 phloroglucinol. The class given is cell-based. An excerpt:
The genes encoding the PDR proteins were amplified from yeast (W303-1A) genomic DNA by PCR (“polymerase chain reaction”) and cloned in plasmids. The accuracy of the sequence was verified by sequencing. The various genes encoding the PDRs were integrated into the genome at the JLP1 locus according to the structure described in FIG. 4A. Each strain constructed bears a YA number, and a library of 28 yeast strains overexpressing a PDR transporter was thus created, in a proportion of two clones per transporter.
In order to test the impact of the PDR overexpression on the phloroglucinol tolerance at high phloroglucinol concentration (>15 g·l^−1), the strains were cultured as follows.
The phloroglucinol was dissolved at the concentration of 20 g·l^−1 in YPD medium containing 2% glucose as carbon source. In order to carry out the experiment, the yeasts expressing each PDR were inoculated at an OD600 nm of 0.05. The cultures were carried out in 48-well microplates, incubated with agitation at 28° C. for 24 h. After 24 h, the OD600 nm is measured. FIG. 5 represents the OD600 nm values obtained at the end of the culture.

In brackets after ≈: the same amount, converted by molar mass.

T1 sequence (P32568 whole entry): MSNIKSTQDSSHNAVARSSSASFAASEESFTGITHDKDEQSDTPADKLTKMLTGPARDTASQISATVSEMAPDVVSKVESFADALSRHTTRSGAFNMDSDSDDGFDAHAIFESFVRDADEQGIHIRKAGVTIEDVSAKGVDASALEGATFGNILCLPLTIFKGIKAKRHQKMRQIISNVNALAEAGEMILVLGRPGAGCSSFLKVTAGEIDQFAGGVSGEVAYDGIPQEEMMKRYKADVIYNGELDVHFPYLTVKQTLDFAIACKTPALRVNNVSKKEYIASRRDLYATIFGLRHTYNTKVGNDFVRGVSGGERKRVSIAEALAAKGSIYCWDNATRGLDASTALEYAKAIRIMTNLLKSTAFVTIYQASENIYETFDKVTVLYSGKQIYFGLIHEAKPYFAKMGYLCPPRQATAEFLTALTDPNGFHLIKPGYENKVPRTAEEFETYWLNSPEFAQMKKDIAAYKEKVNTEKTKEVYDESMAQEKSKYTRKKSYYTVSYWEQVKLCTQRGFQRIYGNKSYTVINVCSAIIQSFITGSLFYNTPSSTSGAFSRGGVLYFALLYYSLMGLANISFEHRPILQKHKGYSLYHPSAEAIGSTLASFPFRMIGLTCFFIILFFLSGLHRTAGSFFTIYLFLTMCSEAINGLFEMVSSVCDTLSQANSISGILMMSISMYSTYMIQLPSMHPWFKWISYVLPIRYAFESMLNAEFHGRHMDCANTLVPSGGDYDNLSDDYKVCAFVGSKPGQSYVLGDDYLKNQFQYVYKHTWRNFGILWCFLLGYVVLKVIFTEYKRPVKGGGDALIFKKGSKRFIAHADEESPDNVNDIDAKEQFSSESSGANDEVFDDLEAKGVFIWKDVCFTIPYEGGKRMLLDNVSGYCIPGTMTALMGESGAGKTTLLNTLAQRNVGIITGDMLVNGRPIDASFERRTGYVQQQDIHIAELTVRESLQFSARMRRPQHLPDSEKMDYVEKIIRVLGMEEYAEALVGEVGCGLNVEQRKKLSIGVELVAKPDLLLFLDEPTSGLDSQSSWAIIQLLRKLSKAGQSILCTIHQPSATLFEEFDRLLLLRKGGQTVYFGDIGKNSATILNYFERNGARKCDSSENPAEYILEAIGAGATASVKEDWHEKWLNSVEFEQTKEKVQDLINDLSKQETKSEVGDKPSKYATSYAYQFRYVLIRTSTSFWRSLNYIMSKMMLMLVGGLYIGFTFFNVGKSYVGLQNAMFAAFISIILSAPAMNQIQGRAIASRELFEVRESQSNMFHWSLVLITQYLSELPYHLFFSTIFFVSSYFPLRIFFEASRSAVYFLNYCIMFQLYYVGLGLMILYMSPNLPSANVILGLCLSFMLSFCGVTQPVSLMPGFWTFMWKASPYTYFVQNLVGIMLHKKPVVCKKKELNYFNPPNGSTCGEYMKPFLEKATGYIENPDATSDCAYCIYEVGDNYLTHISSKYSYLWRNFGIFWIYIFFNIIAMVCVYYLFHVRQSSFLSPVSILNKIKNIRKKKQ

In the case of `Oc1cc(O)cc(O)c1` [phloroglucinol, benzene-1,3,5-triol], the concentration for a half-maximal effect (EC50) in data set [1] (Saccharomyces cerevisiae, 24 h, read-out: EC50 of phloroglucinol on growth) was greater than 10000 µg/mL; in data set [2] (Escherichia coli, read-out: EC50 of phloroglucinol on growth), roughly 750 µg/mL (≈ 5.95 mM). The “concentration from which phloroglucinol toxicity on yeast cells is apparent” value in data set [1] (conclusion) was no less than 15 g/L. Moreover, the “concentration at which significant inhibition of the growth is observed” value in data set [1] (only in this medium among 1-15 g·l^−1, 28° C., 24 h) was found to be 15 g/L. Moreover, the “concentrations giving total inhibition of the growth” value in data set [2] (37° C.) is recorded as “greater than or equal to 2.5 g·l^−1”. Moreover, the “inhibition of the growth” value in data set [2] (at the concentration of 1 g·l^−1, 37° C.) is reported as “very considerable inhibition of the growth”. Also, the “phloroglucinol inhibition in the presence of ethanol versus without ethanol” value in data set [3] is “slightly greater”. In addition, in data set [4], the transporter substrate status entry is reported as “substrate for SNQ2”.

Usually EC50 stands for the midpoint of the concentration-response curve.

For the origin of these results see patent US12275976B2, “Phloroglucinol-resistant cell, in particular yeast” (COMPAGNIE GENERALE DES ETABLISSEMENTS MICHELIN, priority 2019, dated 2025).
